For assay [1], the target named is T1, E. coli dihydrofolate reductase (ecDHFR) (Escherichia coli, UniProt P0ABQ4).
T1 sequence (P0ABQ4 1-159): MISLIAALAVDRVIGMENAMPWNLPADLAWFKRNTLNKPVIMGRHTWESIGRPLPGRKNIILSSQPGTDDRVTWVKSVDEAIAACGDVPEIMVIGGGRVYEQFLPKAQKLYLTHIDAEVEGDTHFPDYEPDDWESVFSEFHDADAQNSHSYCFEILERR
The class given is binding. The following applies: 0.1 mM ecDHFR; for ILOE signals with metformin (co-binding): 5 mM of each ligand (Fenbufen 2 mM), pH 6.8, 25 °C.

The target of assay [2] is T1, E. coli dihydrofolate reductase (ecDHFR).
The target is the same in assay [3]. Put plainly: biochemical. Particulars: NMR.
Assay [4] shares this target. Description: Isothermal titration calorimetry. Type of assay: binding. (ITC needs no label: the signal is the heat of the interaction.)
The target is the same in assay [5]. Description: Steady state kinetics of ecDHFR inhibition. The class given is biochemical. The following applies: for α value (cooperative inhibition by MFM and pABG): Dixon plots, DHF 7.5 μM, α > 1 = negative cooperativity; for Ki: 30 °C, pH 7.0; for mode of inhibition: versus DHF, Lineweaver-Burk plot.
For the next assay, the target named is L. casei DHFR. The following applies: cited from earlier work.
[6] abbreviates: Ki, Lineweaver-Burk slope vs inhibitor concentration, NADPH 70 μM.

“And” between values parts separate entries of the source, which are not always exact repeats. Equal entries are not always repeated. “Also recorded” adds a separate entry of the source. Where two headings read alike, the source gives them in different places.

In the case of `Cc1cc(C(=O)CCC(=O)O)c(C)c(C)c1C` [2,3,4,5-tetramethyl, 3-(2,3,4,5-tetramethylbenozyl)propionate], the “ILOE signals with metformin (co-binding)” value in assay [1] is “stronger ILOE signals”.

With `COc1ccc(C(=O)NCC(=O)O)cc1OC` [3,4-Dimethoxyhippurate, 3,4-dimethoxyhippurate], the “ILOE signals with metformin (co-binding)” value in assay [1] is given as “weak ILOE cross peaks”.

On to `CC(C)c1ccc(C(=O)CCC(=O)O)cc1` [4-isopropyl, 3-(4-isopropylbenozyl)propionate], for which the “ILOE signals with metformin (co-binding)” value in assay [1] was “stronger ILOE signals”.

Turning to `Cc1ccc(C(=O)NCC(=O)O)cc1` [4-methylhippurate], the “ILOE signals with metformin (co-binding)” value in assay [1] was “ILOE signals were obtained”.

A word on the Kd: it is the free concentration of one partner at which half of the binding sites on the other are occupied at equilibrium, for simple one-to-one binding. Consider `Cc1ccc(C(=O)CCC(=O)O)c(C)c1` [DMBP, 3-(2,4-dimethylbenzoyl)propionate], for which binding in assay [2] (NMR serial titration, no other ligand) was characterised by a dissociation constant (Kd) of 5.4 mM.

For the molecule `O=C(O)c1cc(-c2ccc(F)cc2F)ccc1O` [Diflunisal], in assay [1] (screening buffer, 25 °C), the “transferred NOE signals” value is “transferred NOE signals consistent with binding”.

The Ki is a dissociation constant, usually derived from enzyme kinetics or from competition with a known ligand. The low end stands for a stronger hold on the target, the high end for a looser hold on the target. In the case of `CN(C)C(=N)N=C(N)N` [Metformin], in assay [2] (ecDHFR affinity for MFM versus DAP), the “affinity relative to DAP (fold weaker)” value was ~ 20 fold. The dissociation constant (Kd) is 14.8 mM and 15.9 mM in assay [3] (Ile5 resonance, no other ligand, pH 7.2 in D2O); 7 ± 0.16 mM in assay [3] (Ile50, 75 mM DMBP present); 6.89 ± 0.56 mM in assay [3] (Ile50′ (MFM-sensitive resonance), 50 mM pABG present); 5.27 ± 0.71 mM in assay [3] (Ile50′, 50 mM pABG and 2 mM NADP+ present); 5.36 ± 1.15 mM in assay [3] (Ile61′ (MFM-sensitive resonance), 50 mM pABG present); 17.9 mM in assay [4] (mean Kd, stated as mean of NMR and ITC displacement studies). In addition, the ΔH in assay [4] (ITC competitive displacement by DHF, NADP+ present, initial fit with variable ΔH) was -1.1 ± 3.2 kcal/mol. For the same molecule, the “α value (cooperative inhibition by MFM and pABG)” value in assay [5] (NADPH 70 μM) is given as 3.3 ± 1.3. Moreover, the inhibition constant Ki in assay [5] (setting [6]) was 24 ± 7 mM; in assay [5] (Ki, non-linear global fit of all the data (SAS), NADPH), 17.9 mM. In addition, in assay [5] (listed as MFM), the mode of inhibition result is listed as “competitive binding; also recorded: competitive inhibition”.

For the molecule `[H]/N=C(/N)N/C(=N/[H])NCCc1ccccc1` [Phenformin, phenformin], the Kd is 0.188 ± 0.018 mM in assay [4] (Kd, ITC direct titration, cofactor NADP+, pH 7.0, 25° C); 0.098 ± 0.007 mM in assay [4] (Kd, ITC direct titration, cofactor NADPH, pH 7.0, 25° C); 0.716 ± 0.045 mM in assay [4] (Kd, ITC direct titration, no cofactor, pH 7.0, 25° C). This molecule also yielded an inhibition constant (Ki) in assay [5] (setting [6]) of 0.17 ± 0.02 mM. In addition, the “inhibition constant relative to metformin (fold lower)” value in assay [5] (phenformin Ki versus metformin Ki) was determined as 100 fold. For the same molecule, in assay [5], the mode of inhibition entry was “competitive inhibition”.

On to `O=C(O)CNC(=O)c1ccccc1` [hippurate, N-benzoylglycine], for which, in assay [1], the “ILOE signals with metformin (co-binding)” value is recorded as “neither transferred NOE nor ILOE MFM-hippurate cross peaks were observed”.

Regarding `Nc1ccc(C(=O)N[C@@H](CCC(=O)O)C(=O)O)cc1` [pABG, p-aminobenzoyl-L-glutamate], the Kd is 7.64 ± 0.53 mM in assay [2] (NMR, Ile50 resonance, no other ligand, pH 7.2 in D2O); 8.09 ± 0.52 mM in assay [2] (NMR, Ile61 resonance, no other ligand, pH 7.2 in D2O); 8 ± 0.37 mM in assay [2] (NMR, Ile94 resonance, no other ligand, pH 7.2 in D2O); 7.9 mM and 7.91 mM in assay [2] (read-out: Kd (mean), mean of NMR values from Ile50, Ile61, Ile94). Besides, the “ILOE signals with metformin (co-binding)” value in assay [1] was “ILOE signals connecting the MFM methyl resonances with the pABG aromatic resonances were present”. The “Kd ratio in the absence and presence of NADPH” value at L. casei DHFR is on record as 4.5. Moreover, in assay [5] (NADPH 70 μM), the “α value (cooperative inhibition by MFM and pABG)” value worked out at 3.3 ± 1.3. In addition, the Kd/Ki ratio in assay [5] (Kd (NMR, no cofactor) over Ki (NADPH present)) is recorded as 4.4. Besides, the Ki in assay [5] (Lineweaver-Burk slope vs inhibitor concentration, NADPH 70 μM) came to 1.8 ± 0.3 mM; in assay [5] (non-linear global fit of all the data (SAS), NADPH) it was 1.3 ± 0.2 mM.

These data come from article PMC5740485 (Biochemistry, 2017).
